In patent publication US11839661B2, “Rapid formation of supramolecular hydrogels by short peptide and bioactive small molecules” (BRANDEIS UNIVERSITY, priority 2017, dated 2023):
One block for each compound: values may come before it. Square brackets hold non-standard residues; d marks the D form. Ends that are not written are not given here. Peptide text beside a SMILES is read from it. * marks the point of attachment. Acetyl(thymin-1-yl) = Cc1cn(CC(=O)*)c(=O)[nH]c1=O; Acetyl(2-naphthyl) = O=C(Cc1ccc2ccccc2c1)*

Columns and labels:
[1] = Rheology (storage and loss moduli); format: physicochemical
Experimental: Rheology Experiments: The rheological tests were performed on TA ARES-G2 rheometer, parallel-plate geometry with an upper plate diameter of 25 mm and a gap of 0.4 mm. During the measurement, the stage temperature was maintained at 25° C. by Peltier heating/cooling system. The hydrogel was loaded into stage by spatula. For the rheology testing in Examples 1-7, a time sweep was performed at the frequency of 6.28 rad/s and the strain for 1.0%, and a frequency sweep was performed at the range of 0.1 to 200 rad/s and strain is 1.0%. For the rheology testing in Examples 8-12, a strain sweep (0.1% to 100%) was performed at the frequency of 6.28 rad/s, and a frequency sweep was performed at the range of 0.1 to 200 rad/s and strain is 1.0%.

[2] = tested on: HS-5 (Human Bone Marrow Stromal) cell lines; assay: Biocompatibility with HS-5 cell lines; format: cell-based; conditions: HS-5 cells, over 3 days, concentration range 20-500 μM
Description: The biocompatibility of peptide 1 with HS-5 (Human Bone Marrow Stromal) cell lines was investigated over 3 days. […] It is expected, therefore, that peptide 1 is also compatible with other types of physiologically normal cells.

[3] = Hydrogelation / gelation time by vial inverse method; format: physicochemical
Experimental: Hydrogel Preparation: Compound 1 (5.0 mg) was dissolved in 1 mL of aqueous buffer (sodium hydroxide was used to adjust the final pH to 7.4), and the hydrogels were formed after the addition of different equivalents of small molecules (initial concentration is 100 mM), the final concentration of 1 is 0.4 wt % in all hydrogels. The gelation time of 1 with different bioactive small molecules was determined by vial inverse method.

[4] = Doxorubicin release from hydrogel; format: physicochemical; conditions: hydrogel of 1 (0.4 wt %) formed with 1 equivalent pyridoxal, Dox 200 μg/mL, 37° C.
Experimental: To load the drug, a solution of Dox (1 mg/mL) was added during the gelling process. After the hydrogel formed by addition of pyridoxal or ATP (final concentration of 1 is 0.4 wt % and doxorubicin was 200 μg/mL). 0.25 mL of PBS (0.1 M phosphate-buffered saline (PBS, pH 7.4) or 0.1 M acetate buffer solution (pH 5.0)) was added onto the surface of the hydrogels, 0.2 mL of solution was taken out at the desired time point and 0.2 mL of PBS was added back. For the following time points, 0.2 mL of PBS was taken out and 0.2 mL of PBS was added back at each point. Using this process, the release of Dox was monitored by measuring the absorbance of Dox at wavelength of 480 nm, and its release profile calculated. The experiment was performed at 37° C. in triplicate. The results are shown in FIGS. 9A-B. As expected, the hydrogel releases the Dox according to the type of small bioactive molecules and pH.

[5] = Sequestration of ATP by nucleopeptide (phase transition); format: binding
Experimental: (§1) Sample Preparation and Process for Sequestering ATP by Nucleopeptide: Typically, nucleopeptide […] was dissolved in 1 mL of PBS buffer. A minimal amount of sodium hydroxide was used to adjust the final pH to 7.4 to form 5.0 wt % solution of the nucleopeptide. ATP or ADP was dissolved in PBS buffer at the concentration of 100 mM with the final pH of 7.4. To test sequestration ability of nucleopeptide, we mixed the solution of 5.0 wt % of nucleopeptide with ATP (ADP) in different molar ratio and stirred the mixture with pipettor gently. The mixture was kept at room temperature and used for different characterizations. The sequestration of ATP (or ADP) results in phase transition, from the solution to precipitates or hydrogel, which is observable by naked eyes. Such phase transitions were further characterized by TEM, CD, SLS and rheology according to the same procedure for sample preparation.

[6] = Interaction of nucleopeptide with ADP (phase transition); format: binding; conditions: PBS buffer pH 7.4
Experimental: as §1

MBP-ASC^PYD = MBP-ASC^PYD (Homo sapiens, UniProt Q9ULZ3); assay: TEM of MBP-ASC^PYD oligomerization on co-incubation with P5P; format: biochemical; conditions: P5P 100 μM co-incubated with MBP-ASC^PYD (1 mg/mL, ~18 μM)
MES-SA/dx5 cells [7] = assay: MTT assay; format: cell-based; conditions: 48 hours
Experimental: Cell culture and MTT assay: Cell culture was carried out with MES-SA/dx5 cells purchased from Sigma-Aldrich Corporation. These cells were cultured in Macyo's 5A medium supplemented with 10% v/v fetal bovine serum, 100 U/mL penicillin and 100 μg/mL streptomycin. The condition for cell culture was 37° C. in a humidified atmosphere of 5% CO2. The MTT assay was carried out using MES-SA/dx5 cells seeded in a 96-well plate with a density of 1*10^4 cells per-well (total medium volume of 100 μL). 24 hours post seeding, after the removal of the medium, solutions with serial of concentrations (5 concentrations) of different nucleopeptides were added to each well. Cells without the treatment of the precursors were used as the control. At designated time (24/48/72 hours), 10 μL MTT solution (5 mg/mL) was added to each well and incubated at 37° C. for another 4 h, and then 100 μL of SDS-HCl solution was added to stop the reduction reaction and dissolve the purple formazan. The absorbance of each well at 595 nm was measured by a multimode microplate reader. The cytotoxicity assay was performed three times and the average value of the three measurements was taken. All the statistical analysis used mean±SEM. The range of SEM is from 0.04 to 2.21.

MES-SA/dx5 cells [8] = assay: CLSM of inhibition of Dox efflux pump; format: cell-based; conditions: MES-SA/dx5 cells without NP1 treatment, five hours after changing to medium without Dox
Experimental: Confocal Laser Scanning Microscopy (CLSM) Images of the Inhibition of Efflux Pump: To determine the potential drug efflux inhibitory effect by nucleopeptides, the drug efflux of free DOX was evaluated without or with incubation with nucleopeptide in efflux pumps overexpressing MES-SA/dx5 cells. After seeding 1.5×10^5 cells into 3.5 cm confocal dish and incubating at 37° C. for 24 h, the cells were incubated either with 10 μM free Dox or Dox with different concentration of nucleopeptide for 4 h. Then the medium was removed and the cells were washed three times with culture medium, and subsequently incubated with fresh complete medium for different time intervals (0, 2 or 5 h). At the end of incubation time, the cells were washed twice by live cell imaging buffer and stained nucleus by Hoechst 33342 for 10 minutes. After washed twice by live cell imaging, the cells were imaged immediately by Zeiss 880 microscope at the lens of 60×.

[9] = 1 at 0.4 wt %, 1 equivalent folinic acid
[10] = 1 at 0.4 wt %, 1 equivalent pyridoxal
[11] = 1 at 0.4 wt %, 4 equivalents folinic acid
[12] = 1 at 0.4 wt %, 4 equivalents pyridoxal

Chain of MBP-ASC^PYD (Q9ULZ3 1-91 limits assumed): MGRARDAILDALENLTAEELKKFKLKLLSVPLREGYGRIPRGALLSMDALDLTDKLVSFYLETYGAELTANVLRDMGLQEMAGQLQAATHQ

storage modulus [1, 9]: 64 Pa
cross point of G′ and G″ [1, 10]: 77 s
storage modulus G′ [1, 10]: 55 Pa
storage modulus [1, 11]: 78 Pa
storage modulus G′ [1, 12]: 980 Pa
storage modulus G′ ([1]; 1 at 0.4 wt %, one equivalent of P5P): 40 Pa
mechanical properties ([1]; 1 in the presence of ATP or AMP): change little
storage modulus G′ ([1]; 1 itself, 0.4 wt %, after 1 h incubation): around 6 Pa
G′ relative to hydrogel formed with 1 equivalent pyridoxal ([1]; 4 equivalents pyridoxal): 18 times
G′ relative to G′ of 1 itself ([1]; one equivalent of P5P): 8 times
biocompatibility [2]: cell-compatible
tendency for hydrogelation (state in aqueous solution) ([3]; 1 alone, 0.4 wt %, pH 7.4): transparent viscous solution
gelation time ([3]; 1 at 0.4 wt %, 1 equivalent AMP): 11 s
gelation time [3, 9]: about 8 seconds
gelation time (sol-gel phase transition) [3, 10]: 190 s
gelation time ([3]; 1 at 0.4 wt %, 1 or 4 equivalents ATP): about 7 seconds
gelation time ([3]; 1 at 0.4 wt %, 4 equivalents AMP): 5 s
gelation time [3, 11]: ~7 s
gelation time [3, 12]: ≤ 19 s
gelation time ([3]; 1 at 0.4 wt %, four molar equivalents of P5P): 4 s
gelation time ([3]; 1 at 0.4 wt %, pH 7.4, equal molar P5P): ≤ 10 s
gelation time ([3]; 1 at 0.4 wt %, two to four molar equivalents of P5P): ≤ 10 s
release of doxorubicin from hydrogel ([4]; pH 5.0, 12 h): about 85%
release of doxorubicin from hydrogel ([4]; pH 7.4, 12 h): 50%
Compound: CC(C)C[C@H](NC(=O)[C@H](CCCCN)NC(=O)[C@H](CC(C)C)NC(=O)[C@H](CCCCN)NC(=O)[C@H](Cc1ccccc1)NC(=O)[C@H](CCCCN)NC(=O)[C@H](CCCCN)NC(=O)[C@H](Cc1ccccc1)NC(=O)[C@H](Cc1ccccc1)NC(=O)Cc1ccc2ccccc2c1)C(=O)O [Peptide 1] ({Acetyl(2-naphthyl)}-FFKKFKLKL-OH; C-terminus assumed)

Compound: thyminylacetyl-FFKKFKL ({Acetyl(thymin-1-yl)}-FFKKFKL) [NP4]
ability to sequester ATP [5]: able to sequester ATP

Compound: thyminylacetyl-FFKKFK ({Acetyl(thymin-1-yl)}-FFKKFK) [NP8]
ability to sequester ATP [5]: unable to sequester ATP

Compound: thyminylacetyl-FFK [NP10]
ability to sequester ATP [5]: unable to sequester ATP

Compound: thyminylacetyl-FFKKFKLKL ({Acetyl(thymin-1-yl)}-FFKKFKLKL) [NP2]
ability to sequester ATP [5]: able to sequester ATP
phase transition after addition of ATP ([5]; PBS buffer pH 7.4): precipitates
phase transition in the presence of ADP [6]: remains as a transparent solution

Compound: thyminylacetyl-ffkkf [NP5]
ability to sequester ATP [5]: able to sequester ATP

oligomerization of MBP-ASC^PYD (MBP-ASC^PYD): modulates the oligomerization
Compound: Cc1ncc(COP(=O)(O)O)c(C=O)c1O [Peptide P5P, pyridoxal-5-phosphate]

Compound: thyminylacetyl-FFKK [NP9]
ability to sequester ATP [5]: unable to sequester ATP

Compound: thyminylacetyl-FFKKFKLK ({Acetyl(thymin-1-yl)}-FFKKFKLK) [NP7]
ability to sequester ATP [5]: unable to sequester ATP

Compound: COc1cccc2c1C(=O)c1c(O)c3c(c(O)c1C2=O)C[C@@](O)(C(=O)CO)C[C@@H]3O[C@H]1C[C@H](N)[C@H](O)[C@H](C)O1 [Dox, doxorubicin, reference compound]
cell death (MES-SA/dx5 cells [7]; Dox alone (5 mm as printed)): 46%
cellular retention of Dox (efflux) (MES-SA/dx5 cells [8]): little Dox

Compound: thyminylacetyl-KKFKLKL ({Acetyl(thymin-1-yl)}-KKFKLKL) [NP12]
ability to sequester ATP [5]: unable to sequester ATP

Compound: thyminylacetyl-FFKKF ({Acetyl(thymin-1-yl)}-FFKKF) [NP6]
ability to sequester ATP [5]: able to sequester ATP

Compound: thyminylacetyl-ffkkfkl [NP3]
ability to sequester ATP [5]: able to sequester ATP

Compound: Cc1cn(CC(=O)N[C@H](Cc2ccccc2)C(=O)N[C@H](Cc2ccccc2)C(=O)N[C@H](CCCCN)C(=O)N[C@H](CCCCN)C(=O)N[C@H](Cc2ccccc2)C(=O)N[C@H](CCCCN)C(=O)N[C@H](CC(C)C)C(=O)N[C@H](CCCCN)C(=O)N[C@H](CC(C)C)C(=O)O)c(=O)[nH]c1=O [NP1, thyminylacetyl-ffkkfklkl] ({Acetyl(thymin-1-yl)}-[dF][dF][dK][dK][dF][dK][dL][dK][dL]-OH)
cytotoxicity (MES-SA/dx5 cells [7]; NP1 by itself): little cytotoxicity

Compound: thyminylacetyl-FF [NP11]
ability to sequester ATP [5]: unable to sequester ATP
